Where two headings read alike, the source gives them in different places.
How the values were obtained:
RPMI-8226 [1] = tested on: RPMI-8226
LOX IMVI [2] = tested on: LOX IMVI
CCRF-CEM [3] = tested on: CCRF-CEM
NCI-H226 = assay: cells; conditions: Homo sapiens
A549/ATCC = assay: cells; conditions: Homo sapiens, A549, read-out: LC50
RPMI-8226 [4] = assay: cells; conditions: Homo sapiens
U251 = assay: cells; conditions: Homo sapiens
CAKI-1 = assay: cells; conditions: Homo sapiens
HL-60 (TB) = assay: NCI in-vitro cytotoxicity screen, Leukemia panel; assay type: cell-based, human
Method: (§2) The compounds of this invention were also tested against the panel of 60 human cancer cell lines at the National Cancer Institute, Bethesda, Md. […] The cytotoxicity studies were conducted using a 48 hour exposure, and measuring the optical density of sulforhodamine B-derived color.

MDA-MB-435 = assay: cells; conditions: Homo sapiens
BT-549 = assay: cells; conditions: Homo sapiens
SK-MEL-28 = assay: cells; conditions: Homo sapiens
SN12C = assay: cells; conditions: Homo sapiens
L1210 leukemia cells = assay: cells; assay type: cell-based, murine; conditions: Mus musculus; L1210, 72 hr incubation
Method: (§1) The P815 and L1210 cell lines were obtained from American Type Tissue Culture Collection (ATCC). The cell lines were grown in Delbecco's Modified Eagle Medium (DMEM, Atlanta Biologicals) supplemented with 10% fetal bovine serum, Hepes Buffer (2 mM, Mediatech Cellgro, 25-060-Cl), L-Glutamine (2 mM, Mediatech Cellgro), and penicillin/streptomycin (50,000 units penicillin, […] streptomycin, Atlanta Biologicals). Cells were maintained at 37° C. in a 5% humidified CO2 atmosphere. […] This cell suspension (100 μL) was added to 96 well flat-bottom cell culture plates. At this concentration, 80,000 cells were seeded in each well. Drug solutions (dissolved in DMSO and diluted in DMEM) were added to each well (5 μL/well) resulting in final concentrations ranging from […] to 1×10^−12 M. Quadruplicate wells were prepared for each drug concentration. The plates were incubated for 72 hr at 37° C. in a 5% CO2 atmosphere. MTT (3-(4,5-dimethylthiazol-2-yl)-2,5-diphenyl tetrazolium bromide) was dissolved in PBS (5 mg/ml). After the indicated cell incubation period, 10 μL of this stock MTT solution was added to each well and the plates were further incubated for 4 h at 37° C. in a 5% CO2 atmosphere. […] The contents of the well were mixed thoroughly by pipetting the cell suspension up and down and the plates were allowed to sit at room temperature for 15 min in order to allow for full development of the purple color. The plates were read on a Dynatech Plate Reader, utilizing Dynex Revelation 3.2 software, with a test wavelenth of 570 nm and a reference wavelength of […].

P815 mastocytoma cells = assay: cells; assay type: cell-based, murine; conditions: Mus musculus; P815, 72 hr incubation
Method: as §1

LOX IMVI [5] = assay: cells; conditions: Homo sapiens
CCRF-CEM [6] = assay: cells; conditions: Homo sapiens
COLO 205 = assay: NCI in-vitro cytotoxicity screen, Colon Cancer panel; assay type: cell-based; conditions: Homo sapiens
Method: as §2

4-(2-Chloroethyl)-3-[5-(5-benzofuran-2-carboxamido)indole-2-carboxamido]phenol [Compound 1]
GI50 (MCF7): 1.03 µM
TGI (MCF7): 2.27E-06 Molar
GI50 (TK-10): 2.45 µM
TGI (TK-10): 5.85E-06 Molar
GI50 (HS 578T): 11.8 µM
TGI (HS 578T): 3.96E-06 Molar
GI50 (M14): 1.49 µM
TGI (M14): 3.19E-06 Molar
GI50 (RPMI-8226 [1]): 1.86 µM
TGI (RPMI-8226 [1]): 5.59E-06 Molar
GI50 (SK-OV-3): 2.93 µM
TGI (SK-OV-3): 7.66E-06 Molar
GI50 (SK-MEL-2): 1.32 µM
TGI (SK-MEL-2): 2.67E-06 Molar
GI50 (SNB-75): 18.6 µM
TGI (SNB-75): 3.32E-05 Molar
GI50 (SF-268): 13.4 µM
TGI (SF-268): 2.78e-05 Molar
GI50 (NCI-H23): 1.67 µM
TGI (NCI-H23): 3.38E-06 Molar
GI50 (LOX IMVI [2]): 2.43 µM
TGI (LOX IMVI [2]): 6.93E-06 Molar
GI50 (EKVX): 1.78 µM
TGI (EKVX): 4.41E-06 Molar
GI50 (CCRF-CEM [3]): 1.26 µM
TGI (CCRF-CEM [3]): 5.28E-06 Molar
GI50 (HT29): 2.29 µM
TGI (HT29): 1.115E-05 Molar
GI50 (OVCAR-8): 1.32 µM
TGI (OVCAR-8): 3.28E-06 Molar

COC(=O)c1[nH]c2c(O)cc(NC(=O)c3cc4cc(OC)c(OC)c(OC)c4[nH]3)c(CCCl)c2c1C(=O)OC [Compound 22, Dimethyl 4-(2-chloroethyl)-7-hydroxy-5-(5,6,7-trimethoxyindole-2-carboxamido)indole-2,3-dicarboxylate]
GI50 (NCI-H226; NCI-H226): 0.0748 µM
CC50 (NCI-H226; NCI-H226, read-out: LC50): 2.55 µM
CC50 (A549/ATCC): < 50 µM
GI50 (RPMI-8226 [4]; RPMI-8226): 0.19 µM
CC50 (RPMI-8226 [4]; RPMI-8226, read-out: LC50): > 50 µM
GI50 (U251; U-251): 0.12 µM
CC50 (U251; U-251, read-out: LC50): > 50 µM
GI50 (CAKI-1; CAKI-1): 0.147 µM
CC50 (CAKI-1; CAKI-1, read-out: LC50): > 50 µM
Percent Growth (HL-60 (TB); HL-60 (TB), Log10 Concentration −4.3): 3%
Percent Growth (HL-60 (TB); HL-60 (TB), Log10 Concentration −5.3): 9%
CC50 (HL-60 (TB); Homo sapiens, HL-60, read-out: LC50): > 50 µM
GI50 (HL-60 (TB); Homo sapiens, HL-60 (TB)): 0.0604 µM
GI50 (MDA-MB-435; MDA-MB-435): 0.137 µM
CC50 (MDA-MB-435; MDA-MB-435, read-out: LC50): > 50 µM
GI50 (BT-549; BT-549): 0.329 µM
CC50 (BT-549; BT-549, read-out: LC50): > 50 µM
GI50 (SK-MEL-28; SK-MEL-28): 0.172 µM
CC50 (SK-MEL-28; SK-MEL-28, read-out: LC50): > 50 µM
GI50 (SN12C): 0.179 µM
CC50 (SN12C; read-out: LC50): > 50 µM
IC50 (L1210 leukemia cells): 4.2 µM
IC50 (P815 mastocytoma cells): 5.4 µM
GI50 (LOX IMVI [5]): 0.0817 µM
CC50 (LOX IMVI [5]; read-out: LC50): 25.6 µM
GI50 (CCRF-CEM [6]): 0.0318 µM
CC50 (CCRF-CEM [6]; read-out: LC50): > 50 µM
GI50 (COLO 205; COLO 205): 0.233 µM
CC50 (COLO 205; COLO 205, read-out: LC50): > 50 µM

— patent US20030073731A1, “Compositions and methods of the use thereof achiral analogues of CC-1065 and the duocarmycins” (priority 2000, published 2003)
